In ChEMBL document CHEMBL1157712, “Hit to lead account of the discovery of bisbenzamide and related ureidobenzamide inhibitors of Rho kinase” (J Med Chem, 2010):

Assays:
[1] = molecular target: Proto-oncogene tyrosine-protein kinase Src (Homo sapiens) (UniProt P12931); test: Inhibition of SRC at 3 uM relative to control; values are per cent of control
[2] = molecular target: Serine/threonine-protein kinase D1 (Homo sapiens) (UniProt Q15139); test: Inhibition of PKD1 at 3 uM relative to control; values are per cent of control
Sequence of Serine/threonine-protein kinase D1 (Homo sapiens) (Q15139 whole entry): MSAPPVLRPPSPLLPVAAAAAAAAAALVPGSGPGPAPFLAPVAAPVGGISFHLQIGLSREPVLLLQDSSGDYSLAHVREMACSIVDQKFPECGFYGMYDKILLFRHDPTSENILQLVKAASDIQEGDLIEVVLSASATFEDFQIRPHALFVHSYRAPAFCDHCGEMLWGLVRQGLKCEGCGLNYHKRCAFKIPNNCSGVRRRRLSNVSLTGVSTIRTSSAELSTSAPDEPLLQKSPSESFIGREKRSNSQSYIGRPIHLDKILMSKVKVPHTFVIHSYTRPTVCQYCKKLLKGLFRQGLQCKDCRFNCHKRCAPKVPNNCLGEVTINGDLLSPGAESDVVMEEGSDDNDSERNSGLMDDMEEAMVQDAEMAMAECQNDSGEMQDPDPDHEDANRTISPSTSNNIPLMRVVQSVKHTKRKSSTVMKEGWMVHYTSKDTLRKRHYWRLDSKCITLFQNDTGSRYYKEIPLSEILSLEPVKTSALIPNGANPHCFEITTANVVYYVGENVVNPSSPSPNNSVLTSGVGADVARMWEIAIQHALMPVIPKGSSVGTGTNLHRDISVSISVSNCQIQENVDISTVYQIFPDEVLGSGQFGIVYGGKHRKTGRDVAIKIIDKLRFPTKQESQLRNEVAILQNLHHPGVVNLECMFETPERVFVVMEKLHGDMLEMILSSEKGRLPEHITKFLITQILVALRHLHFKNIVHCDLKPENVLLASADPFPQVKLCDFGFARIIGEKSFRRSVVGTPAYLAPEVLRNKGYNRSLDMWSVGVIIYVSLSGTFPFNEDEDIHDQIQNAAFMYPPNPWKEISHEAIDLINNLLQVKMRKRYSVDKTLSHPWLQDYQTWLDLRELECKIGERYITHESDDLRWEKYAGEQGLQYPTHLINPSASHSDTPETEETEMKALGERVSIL

ROCK1 (Homo sapiens) = test: Inhibition of ROCK1
[3] = molecular target: MAP kinase-interacting serine/threonine-protein kinase 2 (Homo sapiens) (UniProt Q9HBH9); test: Inhibition of MNK2 at 3 uM relative to control; values are per cent of control
[4] = molecular target: MAP kinase-activated protein kinase 3 (Homo sapiens) (UniProt Q16644); test: Inhibition of MAPKAPK3 at 3 uM relative to control; values are per cent of control
[5] = molecular target: Mitogen-activated protein kinase 1 (Homo sapiens) (UniProt P28482); test: Inhibition of MAPK2 at 3 uM relative to control; values are per cent of control
Sequence of Mitogen-activated protein kinase 1 (Homo sapiens) (P28482 whole entry): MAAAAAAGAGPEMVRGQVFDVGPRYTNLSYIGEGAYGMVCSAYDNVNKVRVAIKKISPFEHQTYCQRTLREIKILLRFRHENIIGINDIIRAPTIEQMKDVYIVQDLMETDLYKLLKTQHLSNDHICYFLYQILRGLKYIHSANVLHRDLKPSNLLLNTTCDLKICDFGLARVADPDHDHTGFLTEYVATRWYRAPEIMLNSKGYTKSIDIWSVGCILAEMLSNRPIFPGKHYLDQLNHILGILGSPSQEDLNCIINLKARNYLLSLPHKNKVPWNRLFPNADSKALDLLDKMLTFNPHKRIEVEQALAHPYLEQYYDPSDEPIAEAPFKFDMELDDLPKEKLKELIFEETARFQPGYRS

[6] = Inhibition of PKBD at 3 uM relative to control; values are per cent of control
[7] = molecular target: Lymphokine-activated killer T-cell-originated protein kinase (Homo sapiens) (UniProt Q96KB5); test: Inhibition of PBK at 3 uM relative to control; values are per cent of control
[8] = molecular target: Ribosomal protein S6 kinase alpha-5 (Homo sapiens) (UniProt O75582); test: Inhibition of MSK1 at 3 uM relative to control; values are per cent of control
[9] = molecular target: [Pyruvate dehydrogenase (acetyl-transferring)] kinase isozyme 1, mitochondrial (Homo sapiens) (UniProt Q15118); test: Inhibition of PDK1 at 3 uM relative to control; values are per cent of control
[10] = molecular target: Aurora kinase B (Homo sapiens) (UniProt Q96GD4); test: Inhibition of Aurora B at 3 uM relative to control; values are per cent of control
[11] = molecular target: Dual specificity tyrosine-phosphorylation-regulated kinase 1A (Homo sapiens) (UniProt Q13627); test: Inhibition of DYRK1A at 3 uM relative to control; values are per cent of control
[12] = molecular target: Eukaryotic elongation factor 2 kinase (Homo sapiens) (UniProt O00418); test: Inhibition of EF2K at 3 uM relative to control; values are per cent of control
[13] = molecular target: Serine/threonine-protein kinase MRCK beta (Homo sapiens) (UniProt Q9Y5S2); test: Inhibition of CDC42BPB
[14] = molecular target: Serine/threonine-protein kinase Nek6 (Homo sapiens) (UniProt Q9HC98); test: Inhibition of NEK6 at 3 uM relative to control; values are per cent of control
Sequence of Serine/threonine-protein kinase Nek6 (Homo sapiens) (Q9HC98 whole entry): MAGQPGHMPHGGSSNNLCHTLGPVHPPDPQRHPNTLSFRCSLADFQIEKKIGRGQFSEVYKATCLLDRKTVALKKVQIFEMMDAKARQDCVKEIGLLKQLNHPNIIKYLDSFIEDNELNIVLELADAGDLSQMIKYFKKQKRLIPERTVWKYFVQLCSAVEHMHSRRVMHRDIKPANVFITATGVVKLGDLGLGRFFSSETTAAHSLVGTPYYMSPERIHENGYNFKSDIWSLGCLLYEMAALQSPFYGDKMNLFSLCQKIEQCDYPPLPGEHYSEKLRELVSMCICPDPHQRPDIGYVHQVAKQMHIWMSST

[15] = molecular target: MAP kinase-activated protein kinase 5 (Homo sapiens) (UniProt Q8IW41); test: Inhibition of PRAK at 3 uM relative to control; values are per cent of control
Sequence of MAP kinase-activated protein kinase 5 (Homo sapiens) (Q8IW41 whole entry): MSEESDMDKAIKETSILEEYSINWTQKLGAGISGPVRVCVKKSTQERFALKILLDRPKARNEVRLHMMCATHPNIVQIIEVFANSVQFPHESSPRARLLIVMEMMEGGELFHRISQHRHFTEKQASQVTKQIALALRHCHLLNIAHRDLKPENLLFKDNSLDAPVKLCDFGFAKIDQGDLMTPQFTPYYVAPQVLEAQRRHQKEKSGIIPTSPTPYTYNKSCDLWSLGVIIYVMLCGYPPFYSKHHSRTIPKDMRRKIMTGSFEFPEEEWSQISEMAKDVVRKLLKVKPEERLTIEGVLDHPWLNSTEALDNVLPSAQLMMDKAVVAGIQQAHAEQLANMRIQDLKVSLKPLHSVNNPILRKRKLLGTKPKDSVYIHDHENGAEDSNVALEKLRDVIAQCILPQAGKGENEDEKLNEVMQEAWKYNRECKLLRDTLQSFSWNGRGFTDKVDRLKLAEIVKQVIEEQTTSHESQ

[16] = molecular target: Serine/threonine-protein kinase Nek6 (Homo sapiens) (UniProt Q9HC98); settings: 3 to 6 uM
Description: Inhibition of NEK6 at 3 to 6 uM relative to control

[17] = molecular target: Insulin-like growth factor 1 receptor (Homo sapiens) (UniProt P08069); settings: 3 to 6 uM
Description: Inhibition of IGF1R at 3 to 6 uM relative to control

Cytochrome P450 2C9 = Cytochrome P450 2C9 (Homo sapiens, UniProt P11712); test: Inhibition of human CYP2C9 by fluorescence assay; type: ADME
[18] = molecular target: Serine/threonine-protein kinase haspin (Homo sapiens) (UniProt Q8TF76); settings: 3 to 6 uM
Description: Inhibition of GSG2 at 3 to 6 uM relative to control

[19] = molecular target: Tyrosine-protein kinase ITK/TSK (Homo sapiens, UniProt Q08881); test: Inhibition of ITK
[20] = molecular target: Proto-oncogene tyrosine-protein kinase Src (Homo sapiens) (UniProt P12931); settings: 3 to 6 uM
Description: Inhibition of SRC at 3 to 6 uM relative to control

[21] = molecular target: Mitogen-activated protein kinase kinase kinase 14 (Homo sapiens) (UniProt Q99558); settings: 3 to 6 uM
Description: Inhibition of NIK at 3 to 6 uM relative to control

[22] = molecular target: Myosin light chain kinase, smooth muscle (Homo sapiens) (UniProt Q15746); settings: 3 to 6 uM
Description: Inhibition of SMMLCK at 3 to 6 uM relative to control

[23] = molecular target: Tyrosine-protein kinase CSK (Homo sapiens) (UniProt P41240); settings: 3 to 6 uM
Description: Inhibition of CSK at 3 to 6 uM relative to control

[24] = molecular target: Dual specificity mitogen-activated protein kinase kinase 1 (Homo sapiens) (UniProt Q02750); settings: 3 to 6 uM
Description: Inhibition of MKK1 at 3 to 6 uM relative to control

[25] = molecular target: Discoidin domain-containing receptor 2 (Homo sapiens) (UniProt Q16832); settings: 3 to 6 uM
Description: Inhibition of DDR2 at 3 to 6 uM relative to control

[26] = molecular target: Serine/threonine-protein kinase mTOR (Homo sapiens) (UniProt P42345); settings: 3 to 6 uM
Description: Inhibition of mTOR at 3 to 6 uM relative to control

[27] = molecular target: Dual specificity protein kinase CLK1 (Homo sapiens) (UniProt P49759); settings: 3 to 6 uM
Sequence of Dual specificity protein kinase CLK1 (Homo sapiens) (P49759 whole entry, looked up): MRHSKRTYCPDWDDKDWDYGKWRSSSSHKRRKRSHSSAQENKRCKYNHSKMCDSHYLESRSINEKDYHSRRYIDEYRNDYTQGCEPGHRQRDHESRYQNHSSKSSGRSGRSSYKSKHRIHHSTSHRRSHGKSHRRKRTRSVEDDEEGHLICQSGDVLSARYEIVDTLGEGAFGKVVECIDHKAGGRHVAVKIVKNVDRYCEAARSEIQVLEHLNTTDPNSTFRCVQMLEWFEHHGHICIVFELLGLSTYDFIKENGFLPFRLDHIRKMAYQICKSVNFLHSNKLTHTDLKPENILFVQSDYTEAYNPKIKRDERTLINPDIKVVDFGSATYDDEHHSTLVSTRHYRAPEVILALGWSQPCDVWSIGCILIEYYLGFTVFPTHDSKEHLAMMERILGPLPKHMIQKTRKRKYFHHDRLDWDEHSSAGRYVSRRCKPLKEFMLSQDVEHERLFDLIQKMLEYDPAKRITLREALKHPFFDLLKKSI
Description: Inhibition of CLK1 at 3 to 6 uM relative to control

[28] = molecular target: Mitogen-activated protein kinase 1 (Homo sapiens) (UniProt P28482); settings: 3 to 6 uM
Description: Inhibition of MAPK2 at 3 to 6 uM relative to control

[29] = molecular target: Tyrosine-protein kinase JAK3 (Homo sapiens) (UniProt P52333); settings: 3 to 6 uM
Description: Inhibition of JAK3 at 3 to 6 uM relative to control

[30] = molecular target: Ribosomal protein S6 kinase alpha-3 (Homo sapiens) (UniProt P51812); settings: 3 to 6 uM
Description: Inhibition of RSK2 at 3 to 6 uM relative to control

[31] = molecular target: Receptor-interacting serine/threonine-protein kinase 4 (Homo sapiens) (UniProt P57078); settings: 3 to 6 uM
Description: Inhibition of ANKRD3 at 3 to 6 uM relative to control

[32] = molecular target: Myotonin-protein kinase (Homo sapiens) (UniProt Q09013); settings: 3 to 6 uM
Description: Inhibition of DMPK at 3 to 6 uM relative to control

[33] = molecular target: Cyclin-dependent kinase 2 (Homo sapiens) (UniProt P24941); settings: 3 to 6 uM
Description: Inhibition of CDK2 at 3 to 6 uM relative to control

[34] = molecular target: Serine/threonine-protein kinase Nek2 (Homo sapiens) (UniProt P51955); settings: 3 to 6 uM
Description: Inhibition of NEK2a at 3 to 6 uM relative to control

[35] = molecular target: SRSF protein kinase 1 (Homo sapiens) (UniProt Q96SB4); settings: 3 to 6 uM
Description: Inhibition of SRPK1 at 3 to 6 uM relative to control

[36] = molecular target: Serine/threonine-protein kinase PLK1 (Homo sapiens, UniProt P53350); settings: 3 to 6 uM
Sequence of Serine/threonine-protein kinase PLK1 (P53350 whole entry): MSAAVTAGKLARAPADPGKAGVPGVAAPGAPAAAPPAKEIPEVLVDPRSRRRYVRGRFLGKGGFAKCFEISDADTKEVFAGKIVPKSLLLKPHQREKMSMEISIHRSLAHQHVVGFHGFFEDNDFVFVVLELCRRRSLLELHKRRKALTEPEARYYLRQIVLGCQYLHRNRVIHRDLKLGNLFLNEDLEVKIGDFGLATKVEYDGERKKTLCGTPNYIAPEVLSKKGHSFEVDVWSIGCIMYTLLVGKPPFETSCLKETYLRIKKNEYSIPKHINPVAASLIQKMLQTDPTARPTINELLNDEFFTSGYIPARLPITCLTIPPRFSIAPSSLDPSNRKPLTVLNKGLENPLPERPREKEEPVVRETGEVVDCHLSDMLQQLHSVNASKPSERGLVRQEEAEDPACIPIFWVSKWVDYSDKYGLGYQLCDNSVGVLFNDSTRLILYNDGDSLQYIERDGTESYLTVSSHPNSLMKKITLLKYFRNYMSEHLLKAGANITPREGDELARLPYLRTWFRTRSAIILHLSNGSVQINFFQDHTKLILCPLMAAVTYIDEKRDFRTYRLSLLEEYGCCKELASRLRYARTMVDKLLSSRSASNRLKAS
Description: Inhibition of PLK1 at 3 to 6 uM relative to control

[37] = molecular target: Voltage-gated inwardly rectifying potassium channel KCNH2 (Homo sapiens, UniProt Q12809); test: Inhibition of human ERG potassium channel up to 70 uM
Sequence of Voltage-gated inwardly rectifying potassium channel KCNH2 (Q12809 whole entry): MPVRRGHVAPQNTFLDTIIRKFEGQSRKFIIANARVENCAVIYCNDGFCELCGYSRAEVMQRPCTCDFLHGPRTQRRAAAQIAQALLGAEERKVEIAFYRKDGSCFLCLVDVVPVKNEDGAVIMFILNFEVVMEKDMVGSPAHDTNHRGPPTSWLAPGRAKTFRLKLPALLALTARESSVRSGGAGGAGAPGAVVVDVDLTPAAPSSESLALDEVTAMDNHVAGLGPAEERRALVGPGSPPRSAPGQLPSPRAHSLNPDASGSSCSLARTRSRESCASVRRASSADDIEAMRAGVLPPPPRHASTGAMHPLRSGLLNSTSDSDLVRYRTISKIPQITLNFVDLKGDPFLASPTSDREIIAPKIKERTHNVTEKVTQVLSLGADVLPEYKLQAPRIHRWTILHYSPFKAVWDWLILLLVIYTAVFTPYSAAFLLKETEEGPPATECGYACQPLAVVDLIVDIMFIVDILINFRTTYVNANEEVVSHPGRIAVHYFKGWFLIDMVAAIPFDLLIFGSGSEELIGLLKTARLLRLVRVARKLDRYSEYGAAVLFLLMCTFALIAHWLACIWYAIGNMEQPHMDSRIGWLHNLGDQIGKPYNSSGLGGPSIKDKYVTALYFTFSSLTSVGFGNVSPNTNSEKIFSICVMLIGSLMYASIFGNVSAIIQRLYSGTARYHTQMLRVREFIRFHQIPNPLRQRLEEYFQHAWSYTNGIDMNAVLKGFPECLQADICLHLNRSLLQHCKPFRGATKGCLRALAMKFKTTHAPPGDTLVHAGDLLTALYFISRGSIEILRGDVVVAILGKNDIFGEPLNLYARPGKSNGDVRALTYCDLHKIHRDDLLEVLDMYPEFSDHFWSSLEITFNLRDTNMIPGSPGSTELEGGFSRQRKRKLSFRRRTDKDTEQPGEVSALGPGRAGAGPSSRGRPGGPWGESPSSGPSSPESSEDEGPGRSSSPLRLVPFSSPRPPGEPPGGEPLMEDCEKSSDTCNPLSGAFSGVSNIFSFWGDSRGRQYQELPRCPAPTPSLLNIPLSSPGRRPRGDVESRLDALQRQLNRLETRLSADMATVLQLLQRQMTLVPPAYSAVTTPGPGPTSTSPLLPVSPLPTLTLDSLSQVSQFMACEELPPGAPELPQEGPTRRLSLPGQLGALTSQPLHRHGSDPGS

Sequence of Proto-oncogene tyrosine-protein kinase Src (Homo sapiens) (P12931 2-536 limits assumed): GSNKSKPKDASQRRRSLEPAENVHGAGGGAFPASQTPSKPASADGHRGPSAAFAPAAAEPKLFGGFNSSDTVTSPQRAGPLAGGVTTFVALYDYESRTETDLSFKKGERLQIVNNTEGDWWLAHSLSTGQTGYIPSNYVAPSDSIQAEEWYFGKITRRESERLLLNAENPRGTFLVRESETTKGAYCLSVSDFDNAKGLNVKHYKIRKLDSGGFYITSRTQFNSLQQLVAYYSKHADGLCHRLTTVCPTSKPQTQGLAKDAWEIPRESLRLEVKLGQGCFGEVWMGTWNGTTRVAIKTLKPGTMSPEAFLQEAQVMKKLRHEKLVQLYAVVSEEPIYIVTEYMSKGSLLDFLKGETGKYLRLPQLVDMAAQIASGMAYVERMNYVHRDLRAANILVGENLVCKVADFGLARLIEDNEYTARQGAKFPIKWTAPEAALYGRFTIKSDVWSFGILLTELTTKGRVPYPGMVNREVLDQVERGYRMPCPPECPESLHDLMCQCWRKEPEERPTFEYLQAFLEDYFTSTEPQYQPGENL

Q: For NC(=O)c1ccc(NC(=O)NCc2cccc(C(=O)Nc3ccc4c(c3)CNCC4)c2)cc1, which residual activity [1] is on record?
A: > 50%

Q: And the residual activity [2]?
A: > 50%

Q: And the IC50 (ROCK1 (Homo sapiens))?
A: 0.006 µM

Q: And the residual activity [3]?
A: > 50%

Q: What about the residual activity [4] of the same compound?
A: > 50%

Q: And the residual activity [5]?
A: > 50%

Q: What about the residual activity [6] of the same compound?
A: > 50%

Q: What about the residual activity [7] of the same compound?
A: > 50%

Q: And the residual activity [8]?
A: > 50%

Q: And the residual activity [9]?
A: > 50%

Q: What about the residual activity [10] of the same compound?
A: > 50%

Q: And the residual activity [11]?
A: > 50%

Q: What about the residual activity [12] of the same compound?
A: > 50%

Q: And the IC50 [13]?
A: > 5 µM

Q: And the residual activity [14]?
A: > 50%

Q: And the residual activity [15]?
A: > 50%

Q: Which residual activity [16] does the source give for COc1ccc(C(=O)NCc2cccc(C(=O)Nc3ccc4c(c3)CNCC4)c2)cc1OC here?
A: > 50%

Q: And the residual activity [17]?
A: > 50%

Q: And the IC50 (Cytochrome P450 2C9)?
A: > 30 µM

Q: And the residual activity [18]?
A: > 50%

Q: What about the IC50 [19] of the same compound?
A: > 10 µM

Q: And the residual activity [20]?
A: > 50%

Q: And the residual activity [21]?
A: > 50%

Q: And the residual activity [22]?
A: > 50%

Q: What about the residual activity [23] of the same compound?
A: > 50%

Q: What about the residual activity [24] of the same compound?
A: > 50%

Q: What about the residual activity [25] of the same compound?
A: > 50%

Q: What about the residual activity [26] of the same compound?
A: > 50%

Q: And the residual activity [27]?
A: > 50%

Q: And the residual activity [28]?
A: > 50%

Q: What about the residual activity [29] of the same compound?
A: > 50%

Q: What about the residual activity [30] of the same compound?
A: > 50%

Q: What about the residual activity [31] of the same compound?
A: > 50%

Q: And the residual activity [32]?
A: > 50%

Q: What about the residual activity [33] of the same compound?
A: > 50%

Q: What about the residual activity [34] of the same compound?
A: > 50%

Q: What about the residual activity [35] of the same compound?
A: > 50%

Q: And the residual activity [36]?
A: > 50%

Q: What about the “inhibition (INH)” value [37] of the same compound?
A: Not Active
